Reference: patent publication US20160318866A1, “SUBSTITUTED BIPIPERIDINYL DERIVATIVES” (Bayer Pharma Aktiengesellschaft, priority 2013, published 2016)
Where a name gives a salt, the structure may show the parent alone. Read-outs that look alike come from different tables or passages of the source.

Target: T1, human α2C receptor (Homo sapiens, UniProt P18825)
T1 construct: expressed in transfected cells; host or cells: CHO cells, also recombinantly expressing chimeric G protein Gαqi3 and mitochondrial obelin (mtOb)
T1 sequence (P18825 1-462): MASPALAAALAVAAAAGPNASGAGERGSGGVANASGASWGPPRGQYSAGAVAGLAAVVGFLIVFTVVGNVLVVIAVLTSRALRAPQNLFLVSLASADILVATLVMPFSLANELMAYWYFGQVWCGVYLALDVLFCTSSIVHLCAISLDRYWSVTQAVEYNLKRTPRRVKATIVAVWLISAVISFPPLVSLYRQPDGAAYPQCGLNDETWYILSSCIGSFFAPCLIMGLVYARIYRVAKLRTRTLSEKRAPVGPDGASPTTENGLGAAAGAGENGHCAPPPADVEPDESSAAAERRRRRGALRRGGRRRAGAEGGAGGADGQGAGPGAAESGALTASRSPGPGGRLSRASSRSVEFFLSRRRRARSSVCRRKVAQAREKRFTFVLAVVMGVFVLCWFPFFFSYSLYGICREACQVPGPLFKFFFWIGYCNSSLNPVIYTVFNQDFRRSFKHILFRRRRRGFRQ
Experiment: Antagonism against the adrenoreceptor α2C (luminescence, recombinant CHO cell line)
Type: cell-based
Method: Antagonism against the adrenoreceptor α1A was tested using a recombinant human α1A receptor CHO cell line which additionally also recombinantly expresses mtAeq (mitochondrial aequorin). Antagonism against the adrenoreceptor α2A was tested using a recombinant human α2A-Gα16 receptor fusion protein CHO cell line (PerkinElmer Life Sciences) which additionally also recombinantly expresses mtAeq. Antagonism against the adrenoreceptor α2B was tested using a recombinant human α2B receptor CHO cell line (PerkinElmer Life Sciences) which additionally also recombinantly expresses mtAeq. Antagonism against the adrenoreceptor α2C was tested using a recombinant human α2C receptor CHO cell line which additionally also recombinantly expresses a chimaric G protein (Gαqi3) and mtOb (mitochondrial obelin).
The cells were cultivated at 37° C. and 5% CO2 in Dulbecco's modified Eagle's Medium/NUT mix F12 with L-glutamine which additionally contains 10% (v/v) inactivated foetal calf serum, 1 mM sodium pyruvate, 0.9 mM sodium bicarbonate, 50 U/ml penicillin, 50 μg/ml streptomycin, 2.5 μg/ml amphotericin B and 1 mg/ml Geneticin. The cells were passaged with enzyme-free Hank's-based cell dissociation buffer. All cell culture reagents used are from Invitrogen (Carlsbad, USA).
Luminescence measurements were carried out on white 384-well microtitre plates. 2000 cells/well were plated in a volume of 25 μl and cultivated for one day at 30° C. and 5% CO2 in cell culture medium with coelenterazine (α2A and α2B: 5 μg/ml; α1a/c and α2C: 2.5 μg/ml). Serial dilutions of the test substances (10 μl) were added to the cells. After 5 minutes, noradrenalinee was added to the cells (35 μl; final concentrations: 20 nM (α1a/c and α2C) or 200 nM (α2A and α2B)), and the emitted light was measured for 50 seconds using a CCD (charge-coupled device) camera (Hamamatsu Corporation, Shizuoka, Japan) in a light-tight box. The test substances were tested up to a maximum concentration of 10 μM. The IC50 values were calculated from the appropriate dose-response curves.

[1] = antagonism against adrenoreceptor α2C, noradrenaline 20 nM, tested up to 10 μM, read-out: IC50

Row | Structure (SMILES) | IC50 [1] | IC50
1 | C[C@@H]1CCCN(C2CCN(C(=O)c3ccc(C(=O)NCc4cccc(OC(F)F)c4)cc3)CC2)C1 [Example 86, (R)—N-[3-(Difluoromethoxy)benzyl]-4-[(3-methyl-1,4′-bipiperidin-1′-yl)carbonyl]benzamide trifluoroacetic acid salt] | 180 nM | –
2 | CC1CCCN(C2CCN(C(=O)c3ccc(C(=O)NCc4ccnc(Cl)c4)cc3)CC2)C1 (centres unmarked) [Example 75, N-[(2-Chloropyridin-4-yl)methyl]-4-[(3-methyl-1,4′-bipiperidin-1′-yl)carbonyl]benzamide trifluoroacetic acid salt] | 36 nM | –
3 | CC1CCCN(C2CCN(C(=O)c3ccc(C(C)(C)C(=O)NC(C)(C)C)cc3F)CC2)C1 (centres unmarked) [Example 65, N-tert-Butyl-2-{3-fluoro-4-[(3-methyl-1,4′-bipiperidin-1′-yl)carbonyl]phenyl}-2-methylpropanamide] | 134 nM | –
4 | CC1CCCN(C2CCN(C(=O)c3ccc(C(=O)NC(C)(C)c4ccc(Cl)c(Cl)c4)cc3)CC2)C1 (centres unmarked) [Example 73, N-[2-(3,4-Dichlorophenyl)propan-2-yl]-4-[(3-methyl-1,4′-bipiperidin-1′-yl)carbonyl]benzamide trifluoroacetic acid salt] | 80 nM | –
5 | CC1CCCN(C2CCN(C(=O)c3ccc(C(=O)NC(C)(C)c4ccccc4)cc3)CC2)C1 (centres unmarked) [Example 71, 4-[(3-Methyl-1,4′-bipiperidin-1′-yl)carbonyl]-N-(2-phenylpropan-2-yl)benzamide trifluoroacetic acid salt] | 64 nM | –
6 | COCCNC(=O)c1ccc(C(=O)N2CCC(N3CCCC(C)C3)CC2)cc1 (centres unmarked) [Example 36, N-(2-Methoxyethyl)-4-[(3-methyl-1,4′-bipiperidin-1′-yl)carbonyl]benzamide] | 479 nM | –
7 | CCOC(=O)C1CCCN(C2CCN(C(=O)c3ccc(C(C)(C)C)cc3)CC2)C1 (centres unmarked) [Example 1, Ethyl 1′-[(4-tert-butylphenyl)carbonyl]-1,4′-bipiperidine-3-carboxylate] | 38 nM | –
8 | CC1CCCN(C2CCN(C(=O)c3ccc(C(=O)N(C)C4CCCCC4)cc3)CC2)C1 (centres unmarked) [Example 49, N-cyclohexyl-N-methyl-4-[(3-methyl-1,4′-bipiperidin-1′-yl)carbonyl] benzamide] | 348 nM | –
9 | CC1CCCN(C2CCN(C(=O)c3ccc(C(=O)NC(C)(C)c4cccc(Cl)c4)cc3)CC2)C1 (centres unmarked) [Example 79, N-[2-(3-Chlorophenyl)propan-2-yl]-4-[(3-methyl-1,4′-bipiperidin-1′-yl)carbonyl]benzamide trifluoroacetic acid salt] | 54 nM | –
10 | COCC1CCCN(C2CCN(C(=O)c3ccc(C(=O)NCc4ncc(F)cc4F)cc3)CC2)C1 (centres unmarked) [Example 97, N-[(3,5-Difluoropyridin-2-yl)methyl]-4-{[3-(methoxymethyl)-1,4′-bipiperidin-1′-yl]carbonyl}benzamide trifluoroacetic acid salt] | 10 nM | –
11 | C[C@@H]1CCCN(C2CCN(C(=O)c3ccc(C(=O)NCc4ncc(F)cc4F)cc3)CC2)C1 [Example 82, (R)—N-[(3,5-Difluoropyridin-2-yl)methyl]-4-{[(3R)-3-methyl-1,4′-bipiperidin-1′-yl]carbonyl}benzamide trifluoroacetic acid salt] | 15 nM | –
12 | CC1CCCN(C2CCN(C(=O)c3ccc(C(=O)NC(C)(C)c4ccc(C(F)(F)F)cc4)cc3)CC2)C1 (centres unmarked) [Example 72, 4-[(3-Methyl-1,4′-bipiperidin-1′-yl)carbonyl]-N-{2-[4-(trifluoromethyl)phenyl]propan-2-yl}benzamide trifluoroacetic acid salt] | 116 nM | –
13 | C[C@@H]1CCCN(C2CCN(C(=O)c3ccc(C(C)(C)O)c(Cl)c3)CC2)C1 [Example 99, [3-Chloro-4-(2-hydroxypropan-2-yl)phenyl][(3R)-3-methyl-1,4′-bipiperidin-1′-yl]methanone] | 84 nM | –
14 | COc1ccccc1OCc1ccc(C(=O)N2CCC(N3CCCC(C)C3)CC2)cc1 (centres unmarked) [Example 10, {4-[(2-Methoxyphenoxy)methyl]phenyl}[3-methyl-1,4′-bipiperidin-1′-yl]methanone] | 96 nM | –
15 | C[C@@H]1CCCN(C2CCN(C(=O)c3ccc(C(=O)NCc4c(F)cccc4F)cc3)CC2)C1 [Example 88, N-(2,6-Difluorobenzyl)-4-{[(3R)-3-methyl-1,4′-bipiperidin-1′-yl]carbonyl}benzamide trifluoroacetic acid salt] | 11 nM | –
16 | COC(C)(C)c1ccc(C(=O)N2CCC(N3CCCC(OCC4CC4)C3)CC2)cc1 (centres unmarked) [Example 122, [3-(Cyclopropylmethoxy)-1,4′-bipiperidin-1′-yl][4-(2-methoxypropan-2-yl)phenyl]methanone] | 9 nM | –
17 | CCOC(=O)C(C)(C)c1ccc(C(=O)N2CCC(N3CCCC(C)C3)CC2)cc1 (centres unmarked) [Example 27, 1-{1-[4-(1-Ethoxy-2-methyl-1-oxopropan-2-yl)benzoyl]piperidin-4-yl}-3-methylpiperidine trifluoroacetic acid salt] | 162 nM | –
18 | CC1CCCN(C2CCN(C(=O)c3ccc(C(=O)NCc4ccncc4)cc3)CC2)C1 (centres unmarked) [Example 45, 4-[(3-methyl-1,4′-bipiperidin-1′-yl)carbonyl]-N-(pyridin-4-yl-methyl) benzamide] | 82 nM | –
19 | CC1CCCN(C2CCN(C(=O)c3ccc(-c4cnco4)cc3)CC2)C1 (centres unmarked) [Example 39, (3-Methyl-1,4′-bipiperidin-1′-yl) [4-(1,3-oxazol-5-yl)phenyl]methanone] | 244 nM | –
20 | COCC1CCCN(C2CCN(C(=O)c3ccc(C(=O)Nc4c(C)noc4C)cc3)CC2)C1 (centres unmarked) [Example 105, N-(3,5-Dimethyl-1,2-oxazol-4-yl)-4-{[3-(methoxymethyl)-1,4′-bipiperidin-1′-yl]carbonyl}benzamide] | 10 nM | –
21 | Cc1cc(C)n(Cc2ccc(C(=O)N3CCC(N4CCCC(C)C4)CC3)cc2)n1 (centres unmarked) [Example 11, {4-[(3,5-Dimethyl-1H-pyrazol-1-yl)methyl]phenyl}(3-methyl-1,4′-bipiperidin-1′-yl)methanone] | 167 nM | –
22 | COC(=O)c1ccc(C(=O)N2CCC(N3CCCC(C)C3)CC2)cc1 (centres unmarked) [Example 22, Methyl 4-[(3-methyl-1,4′-bipiperidin-1′-yl)carbonyl]benzoate] | 940 nM | –
23 | CC1CCCN(C2CCN(C(=O)c3ccc(C(C)(C)C)c(Cl)c3)CC2)C1 (centres unmarked) [Example 3, (3-Chloro-4-tert-butylphenyl)(3-methyl-1,4′-bipiperidin-1′-yl)methanone trifluoroacetic acid salt] | 268 nM | –
24 | CC(C)(O)c1ccc(C(=O)N2CCC(N3CCCC(OCCOC(F)(F)F)C3)CC2)cc1 (centres unmarked) [Example 127, [4-(2-Hydroxypropan-2-yl)phenyl]{3-[2-(trifluoromethoxy)ethoxy]-1,4′-bipiperidin-1′-yl}methanone] | 154 nM | –
25 | CC(C)(O)c1ccc(C(=O)N2CCC(N3CCCC(c4nc(C5CCC5)n[nH]4)C3)CC2)cc1 (centres unmarked) [Example 61, [3-(5-Cyclobutyl-4H-1,2,4-triazol-3-yl)-1,4′-bipiperidin-1′-yl][4-(2-hydroxypropan-2-yl)phenyl]methanone] | 111 nM | –
26 | CC(NC(=O)c1ccc(C(=O)N2CCC(N3CCC[C@@H](C)C3)CC2)cc1)c1c(F)cccc1F (stereo partly drawn) [Example 87, N-[1-(2,6-Difluorophenyl)ethyl]-4-{[(3R)-3-methyl-1,4′-bipiperidin-1′-yl]carbonyl}benzamide trifluoroacetic acid salt] | 16 nM | –
27 | C[C@@H]1CCCN(C2CCN(C(=O)c3ccc(C(C)(C)O)c(F)c3)CC2)C1 [Example 113, [3-Fluoro-4-(2-hydroxypropan-2-yl)phenyl][(3R)-3-methyl-1,4′-bipiperidin-1′-yl]methanone] | 33 nM | –
28 | CNCC1(c2ccc(C(=O)N3CCC(N4CCCC(C)C4)CC3)cc2)CCC1 (centres unmarked) [Example 68, (4-{1-[(Methylamino)methyl]cyclobutyl}phenyl) (3-methyl-1,4′-bipiperidin-1′-yl)methanone trifluoroacetic acid salt] | – | 4 nM
29 | CC(C)(O)c1ccc(C(=O)N2CCC(N3CCCC(c4nc(CC5CCC5)n[nH]4)C3)CC2)cc1 (centres unmarked) [Example 69, {3-[5-(Cyclobutylmethyl)-4H-1,2,4-triazol-3-yl]-1,4′-bipiperidin-1′-yl}[4-(2-hydroxypropan-2-yl)phenyl]methanone] | 25 nM | –
